Test results reported in ChEMBL document CHEMBL1126029, “Definition and display of steric, hydrophobic, and hydrogen-bonding properties of ligand binding sites in proteins using Lee and Richards accessible surface: validation of a high-resolution graphical tool for drug design” (J Med Chem, 1992).

Biological target: T1, Thermolysin (Bacillus thermoproteolyticus, UniProt P00800)
T1 sequence (P00800 whole entry): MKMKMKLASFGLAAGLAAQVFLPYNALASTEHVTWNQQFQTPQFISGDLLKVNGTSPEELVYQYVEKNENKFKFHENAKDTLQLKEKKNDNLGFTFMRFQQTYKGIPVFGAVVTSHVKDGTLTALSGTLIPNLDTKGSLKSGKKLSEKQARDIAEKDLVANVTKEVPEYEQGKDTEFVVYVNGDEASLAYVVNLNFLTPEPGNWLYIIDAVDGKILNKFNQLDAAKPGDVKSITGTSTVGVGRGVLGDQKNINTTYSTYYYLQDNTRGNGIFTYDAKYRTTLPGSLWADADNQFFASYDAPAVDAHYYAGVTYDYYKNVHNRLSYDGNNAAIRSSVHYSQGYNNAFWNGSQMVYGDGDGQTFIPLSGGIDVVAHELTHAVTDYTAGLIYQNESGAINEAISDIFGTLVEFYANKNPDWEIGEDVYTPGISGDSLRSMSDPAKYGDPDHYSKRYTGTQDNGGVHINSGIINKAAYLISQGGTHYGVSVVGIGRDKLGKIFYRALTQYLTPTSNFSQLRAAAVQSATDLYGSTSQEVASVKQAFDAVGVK
Experiment: Inhibitory constant against thermolysin.

Structure (SMILES)	Ki [nM]
O=C(O)CC(=O)N[C@@H](CS)Cc1ccccc1	2300
CC(C)C[C@H](NP(=O)(O)O[C@@H]1O[C@@H](C)[C@H](O)[C@@H](O)[C@H]1O)C(=O)N[C@@H](Cc1c[nH]c2ccccc12)C(=O)O [PHOSPHORAMIDON]	28
CC(C)C[C@H](NP(=O)(O)O)C(N)=O	21300
O=C(O)CNC(=O)C(CS)Cc1ccccc1 (configuration not stated) [THIORPHAN]	1800

Further lines, results first:

Ki [nM]	Structure (SMILES)
9.1	CC(C)C[C@H](NC(=O)[C@H](CC(C)C)NC(=O)CN(C(=O)OCc1ccccc1)P(=O)(O)O)C(=O)O
750	C[C@H](NC(=O)C(CS)Cc1ccccc1)C(=O)NCC(N)=O (some centres not stated)
50	CC(C)C[C@H](NC(CCCc1ccccc1)C(=O)O)C(=O)N[C@@H](Cc1c[nH]c2ccccc12)C(=O)O (some centres not stated)
